Patent publication US20230146455A1, “TREATMENT OF INFLAMMATORY DISEASES WITH PEPTIDES AND PHARMACEUTICAL COMPOSITIONS” (Yuyu Pharma, Inc., priority 2020, published 2023)
“And” between values parts separate entries of the source, which are not always exact repeats. Identical values can stand only once. Where a SMILES comes first, the peptide text is derived from it. [ ]: non-standard residue; d: D form. Hyp = O=C(O)[C@@H]1C[C@@H](O)CN1

Tests used:
CCL20/MIP-3 alpha = test: Example 9 Luminex, LPS hPBMCs: CCL20/MIP-3 alpha; type: cell-based, human
Procedure: (§1) Treatment Human PBMCs were pretreated with YY-101, YDE-011 and YDE-043 or reference compound; Xiidra® at various concentration (ranging from 1 nM to 100 uM) for 2 h before stimulation. An equal volume of 0.5% DMSO was used as a vehicle control. Then, the cells were treated with LPS at 5 ug/ml. The supernatants from treated cells were harvested at 24 h and placed in a 96 well for Luminex cytokine & chemokine profiling using a Luminex 200 multiplex assay (Luminex; R&D system, USA).
(§2) The main study arm with triplicate wells per group in a 24-well plate: • 1. Blank • 2. PBMC: 0.5% DMSO • 3. PBMC+LPS (5 ug/ml) • 4. PBMC+YY-101 100 uM • 5. PBMC+YY-101 10 uM • 6. PBMC+YY-101 1 uM • 7. PBMC+YY-101 0.1 uM • 8. PBMC+YY-101 0.01 uM • 9. PBMC+LPS (5 ug/ml)+Xiidra®100 uM • 10. PBMC+LPS (5 ug/ml)+Xiidra® 10 uM • 11. PBMC+LPS (5 ug/ml)+Xiidra® 1 uM • 12. PBMC+LPS (5 ug/ml)+Xiidra®0.1 uM • 13. PBMC+LPS (5 ug/ml)+Xiidra®0.01 uM • 14. PBMC+LPS (5 ug/ml)+Xiidra®0.001 uM • 15. PBMC+LPS (5 ug/ml)+YY-101 100 uM • 16. PBMC+LPS (5 ug/ml)+YY-101 10 uM • 17. PBMC+LPS (5 ug/ml)+YY-101 1 uM • 18. PBMC+LPS (5 ug/ml)+YY-101 0.1 uM • 19. PBMC+LPS (5 ug/ml)+YY-101 0.01 uM • 20. PBMC+LPS (5 ug/ml)+YY-101 0.001 uM • 21. PBMC+LPS (5 ug/ml)+YDE-011 100 uM • 22. PBMC+LPS (5 ug/ml)+YDE-011 10 uM • 23. PBMC+LPS (5 ug/ml)+YDE-011 1 uM • 24. PBMC+LPS (5 ug/ml)+YDE-011 0.1 uM • 25. PBMC+LPS (5 ug/ml)+YDE-011 0.01 uM • 26. PBMC+LPS (5 ug/ml)+YDE-011 0.001 uM • 27. PBMC+LPS (5 ug/ml)+YDE-043 100 uM • 28. PBMC+LPS (5 ug/ml)+YDE-043 10 uM • 29. PBMC+LPS (5 ug/ml)+YDE-043 1 uM • 30. PBMC+LPS (5 ug/ml)+YDE-043 0.1 uM • 31. PBMC+LPS (5 ug/ml)+YDE-043 0.01 uM • 32. PBMC+LPS (5 ug/ml)+YDE-043 0.001 uM
(§3) Multiplex assay was used to measure 30 cytokines and chemokines. The 1:2, 1:10 and 1:200 diluted cell supernatant and serial dilution of the standard were dispensed into a 96 well plate at 50 ul/well. Then, the pre-mixed cocktail of antibody-coated magnetic beads was dispensed at 50 ul/well and incubated at room temperature for 2 h in a horizontal orbital microplate shaker at 800±500 rpm. The beads were washed using a magnetic device to prevent loss. The biotin-antibody was dispensed in 50 ul of each well and incubated at room temperature for 1 h in a shaker at 800±500 rpm. After washing, streptavidin-PE was added at 50 ul/well and incubated at room temperature for 30 min in a shaker under the same conditions. Finally, after washing, wash buffer (100 ul/well) was added to the plate and incubated in a shaker for 2 min. The Luminex™ 200 setting were set according to the manufacturer's protocol. The data was calculated with a standard five-parameter logistic nonlinear regression analysis of the data (xPonent software 4.2, USA). The levels of cytokine/chemokine are normalized to the live cell counts (1×10^5 cells/mL) and presented as concentrations per mL (pg/mL or ng/mL).

IFN-gamma = test: Example 9 Luminex, LPS hPBMCs: IFN-gamma; type: cell-based, human
Procedure: as §1, §2, §3

[1] = PBMC + LPS(5 ug/ml) + test article 0.001 uM, Mean
[2] = PBMC + LPS(5 ug/ml) + test article 0.001 uM, individual replicate
[3] = PBMC + LPS(5 ug/ml) + test article 0.01 uM, Mean
[4] = PBMC + LPS(5 ug/ml) + test article 0.01 uM, individual replicate
[5] = PBMC + LPS(5 ug/ml) + test article 0.1 uM, Mean
[6] = PBMC + LPS(5 ug/ml) + test article 0.1 uM, individual replicate
[7] = PBMC + LPS(5 ug/ml) + test article 1 uM, Mean
[8] = PBMC + LPS(5 ug/ml) + test article 1 uM, individual replicate
[9] = PBMC + LPS(5 ug/ml) + test article 10 uM, Mean
[10] = PBMC + LPS(5 ug/ml) + test article 10 uM, individual replicate
[11] = PBMC + LPS(5 ug/ml) + test article 100 uM, Mean
[12] = PBMC + LPS(5 ug/ml) + test article 100 uM, individual replicate
[13] = PBMC + LPS(5 ug/ml) + test article 0.001 uM, single replicates
[14] = PBMC + LPS(5 ug/ml) + test article 0.01 uM, single replicates
[15] = PBMC + LPS(5 ug/ml) + test article 0.1 uM, single replicates
[16] = PBMC + LPS(5 ug/ml) + test article 1 uM, single replicates
[17] = PBMC + LPS(5 ug/ml) + test article 10 uM, single replicates
[18] = PBMC + LPS(5 ug/ml) + test article 100 uM, single replicates

Structure (SMILES): CC(C)C[C@H](NC(=O)[C@H](CCC(N)=O)NC(=O)CNC(=O)[C@@H]1C[C@@H](O)CN1)C(=O)NCC(=O)O [YDE-043] (H-[Hyp]GQLG-OH; N-terminus and C-terminus assumed)
- Concentration, CCL20/MIP-3 alpha (CCL20/MIP-3 alpha; [1]): 222.1 pg/mL
- MFI, CCL20/MIP-3 alpha (CCL20/MIP-3 alpha; [1]): 234.3
- conc/live cell, CCL20/MIP-3 alpha (CCL20/MIP-3 alpha; [1]): 45.5 pg/10^5
- Concentration, CCL20/MIP-3 alpha (CCL20/MIP-3 alpha; [2]): 237.5 pg/mL and 214.3 pg/mL and 214.7 pg/mL
- MFI, CCL20/MIP-3 alpha (CCL20/MIP-3 alpha; [2]): 252.5 and 225.0 and 225.5
- conc/live cell, CCL20/MIP-3 alpha (CCL20/MIP-3 alpha; [2]): 54.0 pg/10^5 and 35.7 pg/10^5 and 46.7 pg/10^5
- Concentration, CCL20/MIP-3 alpha (CCL20/MIP-3 alpha; [3]): 257.4 pg/mL
- MFI, CCL20/MIP-3 alpha (CCL20/MIP-3 alpha; [3]): 276.3
- conc/live cell, CCL20/MIP-3 alpha (CCL20/MIP-3 alpha; [3]): 49.7 pg/10^5
- Concentration, CCL20/MIP-3 alpha (CCL20/MIP-3 alpha; [4]): 272.1 pg/mL and 235.8 pg/mL and 264.2 pg/mL
- MFI, CCL20/MIP-3 alpha (CCL20/MIP-3 alpha; [4]): 294.0 and 250.5 and 284.5
- conc/live cell, CCL20/MIP-3 alpha (CCL20/MIP-3 alpha; [4]): 60.5 pg/10^5 and 35.7 pg/10^5 and 52.8 pg/10^5
- Concentration, CCL20/MIP-3 alpha (CCL20/MIP-3 alpha; [5]): 269.5 pg/mL
- MFI, CCL20/MIP-3 alpha (CCL20/MIP-3 alpha; [5]): 290.8
- conc/live cell, CCL20/MIP-3 alpha (CCL20/MIP-3 alpha; [5]): 50.0 pg/10^5
- Concentration, CCL20/MIP-3 alpha (CCL20/MIP-3 alpha; [6]): 269.6 pg/mL and 266.7 pg/mL and 272.1 pg/mL
- MFI, CCL20/MIP-3 alpha (CCL20/MIP-3 alpha; [6]): 291.0 and 287.5 and 294.0
- conc/live cell, CCL20/MIP-3 alpha (CCL20/MIP-3 alpha; [6]): 53.9 pg/10^5 and 47.6 pg/10^5 and 48.6 pg/10^5
- Concentration, CCL20/MIP-3 alpha (CCL20/MIP-3 alpha; [7]): 257.7 pg/mL
- MFI, CCL20/MIP-3 alpha (CCL20/MIP-3 alpha; [7]): 276.7
- conc/live cell, CCL20/MIP-3 alpha (CCL20/MIP-3 alpha; [7]): 48.8 pg/10^5
- Concentration, CCL20/MIP-3 alpha (CCL20/MIP-3 alpha; [8]): 267.1 pg/mL and 251.7 pg/mL and 254.2 pg/mL
- MFI, CCL20/MIP-3 alpha (CCL20/MIP-3 alpha; [8]): 288.0 and 269.5 and 272.5
- conc/live cell, CCL20/MIP-3 alpha (CCL20/MIP-3 alpha; [8]): 46.1 pg/10^5 and 52.4 pg/10^5 and 48.0 pg/10^5
- Concentration, CCL20/MIP-3 alpha (CCL20/MIP-3 alpha; [9]): 267.8 pg/mL
- MFI, CCL20/MIP-3 alpha (CCL20/MIP-3 alpha; [9]): 288.8
- conc/live cell, CCL20/MIP-3 alpha (CCL20/MIP-3 alpha; [9]): 49.6 pg/10^5
- Concentration, CCL20/MIP-3 alpha (CCL20/MIP-3 alpha; [10]): 260.1 pg/mL and 260.9 pg/mL and 282.4 pg/mL
- MFI, CCL20/MIP-3 alpha (CCL20/MIP-3 alpha; [10]): 279.5 and 280.5 and 306.5
- conc/live cell, CCL20/MIP-3 alpha (CCL20/MIP-3 alpha; [10]): 50.0 pg/10^5 and 48.3 pg/10^5 and 50.4 pg/10^5
- Concentration, CCL20/MIP-3 alpha (CCL20/MIP-3 alpha; [11]): 358.3 pg/mL
- MFI, CCL20/MIP-3 alpha (CCL20/MIP-3 alpha; [11]): 399.5
- conc/live cell, CCL20/MIP-3 alpha (CCL20/MIP-3 alpha; [11]): 56.9 pg/10^5
- Concentration, CCL20/MIP-3 alpha (CCL20/MIP-3 alpha; [12]): 381.7 pg/mL and 334.8 pg/mL
- MFI, CCL20/MIP-3 alpha (CCL20/MIP-3 alpha; [12]): 428.5 and 370.5
- conc/live cell, CCL20/MIP-3 alpha (CCL20/MIP-3 alpha; [12]): 61.6 pg/10^5 and 52.3 pg/10^5
- Concentration (IFN-gamma) (IFN-gamma; [1]): 861.2 pg/mL
- conc/live cell (IFN-gamma) (IFN-gamma; [1]): 174.1 pg/10^5
- Concentration (IFN-gamma) (IFN-gamma; [13]): 863.3 pg/mL and 945.2 pg/mL and 774.9 pg/mL
- conc/live cell (IFN-gamma) (IFN-gamma; [13]): 196.2 pg/10^5 and 157.5 pg/10^5 and 168.5 pg/10^5
- Concentration (IFN-gamma) (IFN-gamma; [3]): 841.6 pg/mL
- conc/live cell (IFN-gamma) (IFN-gamma; [3]): 161.9 pg/10^5
- Concentration (IFN-gamma) (IFN-gamma; [14]): 857.6 pg/mL and 792.3 pg/mL and 874.8 pg/mL
- conc/live cell (IFN-gamma) (IFN-gamma; [14]): 190.6 pg/10^5 and 120.0 pg/10^5 and 175.0 pg/10^5
- Concentration (IFN-gamma) (IFN-gamma; [5]): 797.8 pg/mL
- conc/live cell (IFN-gamma) (IFN-gamma; [5]): 148.8 pg/10^5
- Concentration (IFN-gamma) (IFN-gamma; [15]): 892.0 pg/mL and 628.5 pg/mL and 872.9 pg/mL
- conc/live cell (IFN-gamma) (IFN-gamma; [15]): 178.4 pg/10^5 and 112.2 pg/10^5 and 155.9 pg/10^5
- Concentration (IFN-gamma) (IFN-gamma; [7]): 852.5 pg/mL
- conc/live cell (IFN-gamma) (IFN-gamma; [7]): 162.3 pg/10^5
- Concentration (IFN-gamma) (IFN-gamma; [16]): 734.2 pg/mL and 834.6 pg/mL and 988.7 pg/mL
- conc/live cell (IFN-gamma) (IFN-gamma; [16]): 126.6 pg/10^5 and 173.9 pg/10^5 and 186.5 pg/10^5
- Concentration (IFN-gamma) (IFN-gamma; [9]): 840.3 pg/mL
- conc/live cell (IFN-gamma) (IFN-gamma; [9]): 155.7 pg/10^5
- Concentration (IFN-gamma) (IFN-gamma; [17]): 828.9 pg/mL and 826.9 pg/mL and 865.3 pg/mL
- conc/live cell (IFN-gamma) (IFN-gamma; [17]): 159.4 pg/10^5 and 153.1 pg/10^5 and 154.5 pg/10^5
- Concentration (IFN-gamma) (IFN-gamma; [11]): 462.3 pg/mL
- conc/live cell (IFN-gamma) (IFN-gamma; [11]): 73.4 pg/10^5
- Concentration (IFN-gamma) (IFN-gamma; [18]): 480.6 pg/mL and 444.0 pg/mL
- conc/live cell (IFN-gamma) (IFN-gamma; [18]): 77.5 pg/10^5 and 69.4 pg/10^5
